From patent publication US12433952B2, “Antibody-drug conjugates targeting folate receptor alpha and methods of use” (ZYMEWORKS BC INC., priority 2022, dated 2025) come the findings set out here.

Common to all, as to experiment: In vitro cytotoxicity of camptothecin analogues (CellTiter-Glo)
Assay type in all cases: cell-based
(In general: ATP-based viability assays read luminescence as a measure of living cells.)

One test deals with Calu-3 (lung cancer). The following applies: Homo sapiens, Calu-3, 96 h, read-out: pIC50 Calu-3 (converted). The method, then: (§1) Cytotoxicity of the camptothecin analogues was assessed in vitro as follows.
(§2) In vitro potency was assessed on multiple cancer cell lines: SK-BR-3 (breast cancer), SKOV-3 (ovarian cancer), Calu-3 (lung cancer), ZR-75-1 (breast cancer) and MDA-MB-468 (breast cancer). Serial dilutions of camptothecin analogues were prepared in RPMI 1640+10% FBS, and 20 μL of each dilution was added to 384-well plates. Cells cultured in log-phase growth were detached by brief incubation in 0.05% Trypsin and resuspended in respective culturing media at 20,000 cells/mL (with the exception of ZR-75 cells, which were resuspended at 10,000 cells/mL). 50 μL of cell suspension was then added to the plates containing test articles. Cells were incubated with test articles for 4 d at 37° C. (with the exception of ZR-75 cells, which were incubated for 5 d). Growth inhibition was assessed by CellTiter-Glo® (Promega Corporation, Madison, WI) and luminescence was measured on a plate reader. IC50 values were determined by GraphPad Prism (GraphPad Software, San Diego CA).

Test [1] relates to MDA-MB-468 (breast cancer). As to conditions: Homo sapiens, MDA-MB-468, 96 h, read-out: pIC50 MDA-MB-468 (converted). As to the method: as §1, §2
A further test deals with SK-BR-3 (breast cancer). The following applies: Homo sapiens, SK-BR-3, 96 h, read-out: pIC50 SKBR-3 (converted). As to the method:
as §1, §2

The subject of another test is SKOV-3 (ovarian cancer). The following applies: Homo sapiens, SK-OV-3, 96 h, read-out: pIC50 SKOV-3 (converted). The method, then: as §1, §2
The test system of another test is ZR-75-1 (breast cancer). As to conditions: Homo sapiens, ZR-75-1, 120 h, read-out: pIC50 ZR-75 (converted). The method, then:
as §1, §2

Read-outs that look alike come from different tables or passages of the source.

For `CC[C@@]1(O)C(=O)OCc2c1cc1n(c2=O)Cc2c-1nc1cc(F)c(C)cc1c2CN1CCOCC1` [Compound 100, (S)-4-ethyl-8-fluoro-4-hydroxy-9-methyl-11-(morpholinomethyl)-1,12-dihydro-14H-pyrano[3′,4′:6,7]indolizino[1,2-b]quinoline-3,14(4H)-dione], the IC50 was 1.12 nM in the test on Calu-3 (lung cancer) (4 d incubation); 2.51 nM in test [1] (4 d incubation); 1.1 nM with SK-BR-3 (breast cancer) (4 d incubation); 2.29 nM with SKOV-3 (ovarian cancer) (4 d incubation); 1.23 nM in the test with ZR-75-1 (breast cancer) (5 d incubation).
For `CC[C@@]1(O)C(=O)OCc2c1cc1n(c2=O)Cc2c-1nc1cc(F)c(OC)cc1c2CN1CCOCC1` [Compound 101, (S)-4-ethyl-8-fluoro-4-hydroxy-9-methoxy-11-(morpholinomethyl)-1,12-dihydro-14H-pyrano[3′,4′:6,7]indolizino[1,2-b]quinoline-3,14(4H)-dione], the IC50 in test [1] (4 d incubation) is 2.57 nM; with SK-BR-3 (breast cancer) (4 d incubation), 1.07 nM; with SKOV-3 (ovarian cancer) (4 d incubation) it was 1.58 nM; in the test with ZR-75-1 (breast cancer) (5 d incubation), 1.07 nM.
On to `CC[C@@]1(O)C(=O)OCc2c1cc1n(c2=O)Cc2c-1nc1cc(F)c(C)cc1c2CN1CCN(S(=O)(=O)c2ccccc2)CC1` [Compound 102, (S)-4-ethyl-8-fluoro-4-hydroxy-9-methyl-11-((4-(phenylsulfonyl)piperazin-1-yl)methyl)-1,12-dihydro-14H-pyrano[3′,4′:6,7]indolizino[1,2-b]quinoline-3,14(4H)-dione], for which the IC50 is 2.34 nM in test [1] (4 d incubation), 0.933 nM in the test with SK-BR-3 (breast cancer) (4 d incubation), 2.14 nM in the test with SKOV-3 (ovarian cancer) (4 d incubation) and 0.794 nM in the test with ZR-75-1 (breast cancer) (5 d incubation).
As for `CC[C@@]1(O)C(=O)OCc2c1cc1n(c2=O)Cc2c-1nc1cc(F)c(OC)cc1c2CN1CCN(S(=O)(=O)c2ccccc2)CC1` [Compound 103, (S)-4-ethyl-8-fluoro-4-hydroxy-9-methoxy-11-((4-(phenylsulfonyl)piperazin-1-yl)methyl)-1,12-dihydro-14H-pyrano[3′,4′:6,7]indolizino[1,2-b]quinoline-3,14(4H)-dione], the IC50 is 2.34 nM with Calu-3 (lung cancer) (4 d incubation); 4.68 nM in test [1] (4 d incubation); 1.7 nM in the test with SK-BR-3 (breast cancer) (4 d incubation); 4.37 nM in the test with SKOV-3 (ovarian cancer) (4 d incubation); 2.4 nM in the test on ZR-75-1 (breast cancer) (5 d incubation).
The like results for `CC[C@@]1(O)C(=O)OCc2c1cc1n(c2=O)Cc2c-1nc1cc(F)c(C)cc1c2CN1CCN(S(=O)(=O)c2ccc(N)cc2)CC1` [Compound 104, (S)-11-((4-((4-aminophenyl)sulfonyl)piperazin-1-yl)methyl)-4-ethyl-8-fluoro-4-hydroxy-9-methyl-1,12-dihydro-14H-pyrano[3′,4′:6,7]indolizino[1,2-b]quinoline-3,14(4H)-dione] were, in that order, 5.25 nM, 2.63 nM, 2.69 nM, 7.76 nM and 2.57 nM.
The like results for `CC[C@@]1(O)C(=O)OCc2c1cc1n(c2=O)Cc2c-1nc1cc(F)c(OC)cc1c2CN1CCN(S(=O)(=O)c2ccc(N)cc2)CC1` [Compound 105, (S)-11-((4-((4-aminophenyl)sulfonyl)piperazin-1-yl)methyl)-4-ethyl-8-fluoro-4-hydroxy-9-methoxy-1,12-dihydro-14H-pyrano[3′,4′:6,7]indolizino[1,2-b]quinoline-3,14(4H)-dione] were, in that order, 4.47 nM, 2.75 nM, 3.63 nM, 10.7 nM and 3.09 nM.
With `CC[C@@]1(O)C(=O)OCc2c1cc1n(c2=O)Cc2c-1nc1cc(F)c(C)cc1c2CN1CCN(C)CC1` [Compound 106, (S)-4-ethyl-8-fluoro-4-hydroxy-9-methyl-11-((4-methylpiperazin-1-yl)methyl)-1,12-dihydro-14H-pyrano[3′,4′:6,7]indolizino[1,2-b]quinoline-3,14(4H)-dione], the IC50 in the test on Calu-3 (lung cancer) (4 d incubation) is 4.57 nM; in test [1] (4 d incubation), 9.33 nM; in the test with SK-BR-3 (breast cancer) (4 d incubation) it was 3.39 nM; with SKOV-3 (ovarian cancer) (4 d incubation) it was 7.41 nM; in the test with ZR-75-1 (breast cancer) (5 d incubation), 3.8 nM.
With `CC[C@@]1(O)C(=O)OCc2c1cc1n(c2=O)Cc2c-1nc1cc(F)c(C)cc1c2CN1CCN(c2ccc(N)cc2)CC1` [Compound 108, (S)-11-((4-(4-aminophenyl)piperazin-1-yl)methyl)-4-ethyl-8-fluoro-4-hydroxy-9-methyl-1,12-dihydro-14H-pyrano[3′,4′:6,7]indolizino[1,2-b]quinoline-3,14(4H)-dione], the IC50 in the test with Calu-3 (lung cancer) was 40.7 nM; in test [1] it was 47.9 nM; in the test on SK-BR-3 (breast cancer) it was 29.5 nM; in the test on SKOV-3 (ovarian cancer) it was 55 nM; in the test on ZR-75-1 (breast cancer), 18.6 nM.
Consider `CC[C@@]1(O)C(=O)OCc2c1cc1n(c2=O)Cc2c-1nc1cc(F)c(OC)cc1c2CN1CCN(c2ccc(N)cc2)CC1` [Compound 109, (S)-11-((4-(4-aminophenyl)piperazin-1-yl)methyl)-4-ethyl-8-fluoro-4-hydroxy-9-methoxy-1,12-dihydro-14H-pyrano[3′,4′:6,7]indolizino[1,2-b]quinoline-3,14(4H)-dione], for which the IC50 in test [1] (4 d incubation) was 8.13 nM; in the test with SK-BR-3 (breast cancer) (4 d incubation), 5.75 nM; in the test with SKOV-3 (ovarian cancer) (4 d incubation), 7.08 nM; in the test with ZR-75-1 (breast cancer) (5 d incubation), 5.01 nM.
Take `CC[C@@]1(O)C(=O)OCc2c1cc1n(c2=O)Cc2c-1nc1cc(F)c(C)cc1c2CN1CCCCC1` [Compound 110, (S)-4-ethyl-8-fluoro-4-hydroxy-9-methyl-11-(piperidin-1-ylmethyl)-1,12-dihydro-14H-pyrano[3′,4′:6,7]indolizino[1,2-b]quinoline-3,14(4H)-dione]: the IC50 is 0.813 nM in the test with Calu-3 (lung cancer) (4 d incubation); 1.55 nM in test [1] (4 d incubation); 1.32 nM with SK-BR-3 (breast cancer) (4 d incubation); 0.933 nM in the test with SKOV-3 (ovarian cancer) (4 d incubation); 0.851 nM in the test on ZR-75-1 (breast cancer) (5 d incubation).
The matching figures for `CC[C@@]1(O)C(=O)OCc2c1cc1n(c2=O)Cc2c-1nc1cc(F)c(C)cc1c2CN1CCN(C(=O)OC(C)(C)C)CC1` [Compound 111, tert-butyl (S)-4-((4-ethyl-8-fluoro-4-hydroxy-9-methyl-3,14-dioxo-3,4,12,14-tetrahydro-1H-pyrano[3′,4′:6,7]indolizino[1,2-b]quinolin-11-yl)methyl)piperazine-1-carboxylate]: 19.5 nM, 28.8 nM, 8.51 nM, 16.6 nM and 9.12 nM.
As for `CC[C@@]1(O)C(=O)OCc2c1cc1n(c2=O)Cc2c-1nc1cc(F)c(OC)cc1c2CNS(=O)(=O)c1ccc(N)cc1` [Compound 128, (S)-4-amino-N-((4-ethyl-8-fluoro-4-hydroxy-9-methoxy-3,14-dioxo-3,4,12,14-tetrahydro-1H-pyrano[3′,4′:6,7]indolizino[1,2-b]quinolin-11-yl)methyl)benzenesulfonamide], the IC50 in test [1] was 8.32 nM; in the test on SK-BR-3 (breast cancer), 5.25 nM; with SKOV-3 (ovarian cancer), 18.2 nM; in the test with ZR-75-1 (breast cancer), 4.27 nM.
For `CC[C@@]1(O)C(=O)OCc2c1cc1n(c2=O)Cc2c-1nc1cc(F)c(OC)cc1c2CNC(=O)NCCO` [Compound 137, (S)-1-((4-ethyl-8-fluoro-4-hydroxy-9-methoxy-3,14-dioxo-3,4,12,14-tetrahydro-1H-pyrano[3′,4′:6,7]indolizino[1,2-b]quinolin-11-yl)methyl)-3-(2-hydroxyethyl)urea], the IC50 in the test on Calu-3 (lung cancer) (4 d incubation) is 63.1 nM; in test [1] (4 d incubation) it was 28.2 nM; with SK-BR-3 (breast cancer) (4 d incubation) it was 17 nM; in the test on ZR-75-1 (breast cancer) (5 d incubation) it was 18.6 nM.
Consider `CC[C@@]1(O)C(=O)OCc2c1cc1n(c2=O)Cc2c-1nc1cc(F)c(N)cc1c2CN1CCCCC1` [Compound 148, (S)-9-amino-4-ethyl-8-fluoro-4-hydroxy-11-(piperidin-1-ylmethyl)-1,12-dihydro-14H-pyrano[3′,4′:6,7]indolizino[1,2-b]quinoline-3,14(4H)-dione], for which the IC50 was 0.204 nM with Calu-3 (lung cancer) (4 d incubation), 0.204 nM in test [1] (4 d incubation), 0.324 nM with SK-BR-3 (breast cancer) (4 d incubation) and 0.219 nM in the test with ZR-75-1 (breast cancer) (5 d incubation).
`CC[C@@]1(O)C(=O)OCc2c1cc1n(c2=O)Cc2c-1nc1cc(F)c(N)cc1c2CNS(=O)(=O)CCO` [Compound 150, (S)—N-((9-amino-4-ethyl-8-fluoro-4-hydroxy-3,14-dioxo-3,4,12,14-tetrahydro-1H-pyrano[3′,4′:6,7]indolizino[1,2-b]quinolin-11-yl)methyl)-2-hydroxyethane-1-sulfonamide]: the IC50 with SK-BR-3 (breast cancer) (4 d incubation) is 7.94 nM; with SKOV-3 (ovarian cancer) (4 d incubation) it was 63.1 nM; in the test on ZR-75-1 (breast cancer) (5 d incubation) it was 6.46 nM.
